Test results taken from patent US5191093A, “Process for preparing crystalline calcium pseudomonate” (Beecham Group p.l.c., priority 1990, dated 1993).
Where a name gives a salt, the structure may show the parent alone. Read-outs that look alike come from different tables or passages of the source.

Tests used:
Water solubility = assay type: physicochemical; details: amorphous form
[1] = assay type: physicochemical
Description: |Thermal stability data: for crystalline calcium |pseudomate dihydrate, amorphous calcium pseudomonate |Percentage |Initial |Potency |after |Storage ** | ** Expressed as percentage of initial purity.

M.hyopneumoniae = assay: In vitro MIC against Mycoplasma, Friis broth agarose; assay type: cell-based
Protocol: (§1) The activity of the compounds of the Examples against various mycoplasmal organisms was assayed in vitro in Friis broth solidified with 0.9% agarose and inoculated with 10^3 to 10^5 C.F.U. The minimum inhibitory concentrations (MIC's) were determined after incubation for 6 days at 37° C. and are shown in Table 1.

M.gallisepticum = assay: as above; assay type: cell-based; details: Mycoplasmoides gallisepticum, 144 h; strain S6; 6 days at 37° C.
Protocol: as §1

M.bovis = assay: as above; assay type: cell-based; details: NCTC10131, 144 h
Protocol: as §1

M.hyorhinis = assay: as above; assay type: cell-based; details: Mesomycoplasma hyorhinis, 6 days at 37° C.
Protocol: as §1

M.bovigenitalium = assay: as above; assay type: cell-based; details: 144 h; strain ATCC 14173; 6 days at 37° C.
Protocol: as §1

M.pneumoniae = assay: as above; assay type: cell-based; details: Mycoplasmoides pneumoniae, ATCC15492, 144 h; strain ATCC 15492; 6 days at 37° C.
Protocol: as §1

M.hyosynoviae = assay: as above; assay type: cell-based; details: 144 h; strain ATCC 25591; 6 days at 37° C.
Protocol: as §1

K.aerogenes = assay: In vitro MIC against human bacteria, nutrient agar with 5% chocolated horse blood; assay type: cell-based; details: Klebsiella aerogenes; strain A; 18 hours at 37° C.
Protocol: (§2) The activity of the compounds of the Examples against various bacteria which are important in diseases of humans, was assayed in vitro using serial dilutions in nutrient agar with 5% chocolated horse blood.

S.pneumoniae = assay: as above; assay type: cell-based; details: Streptococcus pneumoniae; strain CN33; 18 hours at 37° C.
Protocol: as §2

Pasteurella multocida = assay: as above; assay type: cell-based; details: strain 1633, 18 hours at 37° C.
Protocol: as §2

Streptococcus Spp = assay: as above; assay type: cell-based; details: 18 hours at 37° C.
Protocol: as §2

E.coli [2] = assay: as above; assay type: cell-based; details: Escherichia coli, 18 hours at 37° C.
Protocol: as §2

S.pyogenes = assay: as above; assay type: cell-based; details: Streptococcus pyogenes, 18 h, 18 hours at 37° C.
Protocol: as §2

P.aeruginosa = assay: as above; assay type: cell-based; details: Pseudomonas aeruginosa; strain 10662; 18 hours at 37° C.
Protocol: as §2

R.mirabilis = assay: as above; assay type: cell-based; details: strain 889; 18 hours at 37° C.
Protocol: as §2

S.agalactiae = assay: as above; assay type: cell-based; details: 18 hours at 37° C.
Protocol: as §2

Bacillus subtilis = assay: as above; assay type: cell-based; details: strain 6633, 18 hours at 37° C.
Protocol: as §2

S.aureus = assay: as above; assay type: cell-based; details: Staphylococcus aureus, 18 h, 18 hours at 37° C.
Protocol: as §2

Sarcina lutea = assay: as above; assay type: cell-based; details: Micrococcus luteus; strain 8340; 18 hours at 37° C.
Protocol: as §2

S.faecalis = assay: as above; assay type: cell-based; details: 18 hours at 37° C.
Protocol: as §2

Haemophilus influenzae = assay: as above; assay type: cell-based; details: 18 hours at 37° C.
Protocol: as §2

Neisseria catarrhalis = assay: as above; assay type: cell-based; details: strain 1502, 18 hours at 37° C.
Protocol: as §2

Corynebacterium xerosis = assay: as above; assay type: cell-based; details: strain 9755, 18 hours at 37° C.
Protocol: as §2

B.subtilis = assay: In vitro MIC against veterinary bacteria, Diagnostic Sensitivity Test Agar; assay type: cell-based; details: Bacillus subtilis, ATCC6633; strain ATCC 6633; 18 hours at 37° C.
Protocol: (§3) The activity of the compounds of the Examples against various veterinarily important bacteria, was assayed in vitro using two-fold serial dilutions in Diagnostic Sensitivity Test Agar inoculated with 10^4 organisms.

Corynebacterium pyogenes = assay: as above; assay type: cell-based; details: Trueperella pyogenes; strain CY1; 18 hours at 37° C.
Protocol: as §3

Moraxella Bovis = assay: as above; assay type: cell-based; details: 18 hours at 37° C.
Protocol: as §3

Past.multocida = assay: as above; assay type: cell-based; details: Pasteurella multocida; strain PA1; 18 hours at 37° C.
Protocol: as §3

E.coli [3] = assay: as above; assay type: cell-based; details: Escherichia coli, 18 hours at 37° C.
Protocol: as §3

Strep.suis (group D) = assay: as above; assay type: cell-based; details: Streptococcus suis; strain SPS11; 18 hours at 37° C.
Protocol: as §3

Staph.aureus = assay: as above; assay type: cell-based; details: Staphylococcus aureus, 18 h, 18 hours at 37° C.
Protocol: as §3

Bord.bronchiseptica = assay: as above; assay type: cell-based; details: Bordetella bronchiseptica, 18 h, 18 hours at 37° C.
Protocol: as §3

Past.haemolytica = assay: as above; assay type: cell-based; details: Mannheimia haemolytica; strain PA5; 18 hours at 37° C.
Protocol: as §3

[4] = system: Erysipelothrix rhusiopathiae; assay: as above; assay type: cell-based; details: NCTC8163, strain NCTC 8163, 18 hours at 37° C.
Protocol: as §3

Strep.dysgalaciae = assay: as above; assay type: cell-based; details: strain SPD1; 18 hours at 37° C.
Protocol: as §3

Strep.uberis = assay: as above; assay type: cell-based; details: Streptococcus uberis; strain SPU1; 18 hours at 37° C.
Protocol: as §3

S.typhimurium = assay: as above; assay type: cell-based; details: Salmonella enterica, strain S18, 18 hours at 37° C.
Protocol: as §3

Strep.agalactiae = assay: as above; assay type: cell-based; details: Streptococcus agalactiae; strain SPA1; 18 hours at 37° C.
Protocol: as §3

S.dublin = assay: as above; assay type: cell-based; details: Salmonella enterica; strain S7; 18 hours at 37° C.
Protocol: as §3

With CC(=CC(=O)OCCCCCCCCC(=O)O)CC1OCC(CC2OC2C(C)C(C)O)C(O)C1O (centres unmarked) [Anhydrous Amorphous Calcium Salt, Amorphous Anhydrous Calcium Pseudomonate A] the “water solubility (in words)” value (Water solubility) was “sparingly water soluble”, the “thermal stability (in words)” value [1] was “poor thermal stability” and the “Percentage Initial Potency after Storage” value ([1]; 192 h) was 29%. The “Percentage Initial Potency after Storage” value ([1]; 240 h) was 83.3%.

CC(=CC(=O)OCCCCCCCCC(=O)O)CC1OCC(CC2OC2C(C)C(C)O)C(O)C1O (centres unmarked) [Calcium Pseudomonate dihydrate, Calcium Pseudomonate Dihydrate] showed an MIC (M.hyopneumoniae; Mesomycoplasma hyopneumoniae, 144 h, mean of M.hyopneumoniae strains, read-out: MIC, MEAN) of 2.5 µg/mL, an MIC (M.hyopneumoniae; Mesomycoplasma hyopneumoniae, 144 h, strain JF 435, 6 days at 37° C., read-out: MIC) of 2.5 µg/mL and an MIC (M.hyopneumoniae; Mesomycoplasma hyopneumoniae, NCTC10110, 144 h, strain NCTC 10110, 6 days at 37° C., read-out: MIC) of 2.5 µg/mL. It also gave an MIC (M.hyopneumoniae; strain ATTCC 25095, 6 days at 37° C.) of 2.5 µg/mL, an MIC (M.hyopneumoniae; strain HK (2), 6 days at 37° C.) of 2.5 µg/mL and an MIC (M.hyopneumoniae; strain J2206/183b, 6 days at 37° C.) of 2.5 µg/mL. The MIC (M.hyopneumoniae; strain LABER, 6 days at 37° C.) was 2.5 µg/mL, the MIC (M.hyopneumoniae; strain MS16, 6 days at 37° C.) was 2.5 µg/mL and the MIC (M.hyopneumoniae; strain PW/C/210, 6 days at 37° C.) was 2.5 µg/mL. The MIC (M.hyopneumoniae; strain Str 11, 6 days at 37° C.) was 2.5 µg/mL, the MIC (M.hyopneumoniae; strain TAM 6N, 6 days at 37° C.) was 2.5 µg/mL and the MIC (M.hyopneumoniae; strain UCD1, 6 days at 37° C.) was 2.5 µg/mL. For the same molecule, the MIC (M.gallisepticum) was over 10 µg/mL, the MIC (M.bovis) was 0.025 µg/mL and the MIC (M.hyorhinis; ATCC23234, 144 h, strain ATCC 23234) was 1 µg/mL. It also gave an MIC (M.hyorhinis; ATCC25021, 144 h, strain ATCC 25021) of 1 µg/mL, an MIC (M.bovigenitalium) of 0.1 µg/mL and an MIC (M.pneumoniae) of 5 µg/mL. For the same molecule, the MIC (M.hyosynoviae) was 0.5 µg/mL, the MIC (K.aerogenes) was over 128 µg/mL and the MIC (S.pneumoniae) was 0.03 µg/mL. The MIC (Pasteurella multocida) was 0.5 µg/mL, the MIC (Streptococcus Spp; Streptococcus, S.spp. strain 64/848-C, read-out: MIC) was 0.5 µg/mL and the MIC (Streptococcus Spp; strain 2373C) was 0.5 µg/mL. It also gave an MIC (Streptococcus Spp; strain 2465C) of 0.5 µg/mL, an MIC (Streptococcus Spp; strain 2761C) of 0.5 µg/mL and an MIC (E.coli [2]; NCTC10418, strain NCTC 10418) of 128 µg/mL. For the same molecule, the MIC (E.coli [2]; strain ESS) was 2 µg/mL, the MIC (S.pyogenes; strain 1947A) was 0.13 µg/mL and the MIC (S.pyogenes; strain 1953-A) was 0.13 µg/mL. For the same molecule, the MIC (S.pyogenes; strain BcA) was 0.5 µg/mL, the MIC (S.pyogenes; strain CN10A) was 0.03 µg/mL and the MIC (P.aeruginosa) was over 128 µg/mL. It also gave an MIC (R.mirabilis) of 128 µg/mL, an MIC (S.agalactiae; Streptococcus agalactiae, strain 2788-B, read-out: MIC) of 0.5 µg/mL and an MIC (S.agalactiae; strain 2798B) of 0.5 µg/mL. The MIC (S.agalactiae; strain 2866B) was 0.5 µg/mL, the MIC (Bacillus subtilis) was 0.5 µg/mL and the MIC (S.aureus; strain Oxford, read-out: MIC) was 0.13 µg/mL. The MIC (S.aureus; strain Russell, read-out: MIC) was 0.25 µg/mL, the MIC (S.aureus; strain T2P-, read-out: MIC) was 0.25 µg/mL and the MIC (S.aureus; strain T22P-) was 0.25 µg/mL. The MIC (S.aureus; strain T63P+) was 0.25 µg/mL, the MIC (S.aureus; strain T67P+) was 0.5 µg/mL and the MIC (S.aureus; strain V331, read-out: MIC) was 0.5 µg/mL. For the same molecule, the MIC (S.aureus; strain V352, read-out: MIC) was 0.5 µg/mL, the MIC (S.aureus; strain W2827, read-out: MIC) was 0.25 µg/mL and the MIC (Sarcina lutea) was over 128 µg/mL. For the same molecule, the MIC (S.faecalis; Enterococcus faecalis, strain Tunisia, read-out: MIC) was 128 µg/mL, the MIC (S.faecalis; strain I(ER+)) was 128 µg/mL and the MIC (S.faecalis; strain I) was 128 µg/mL. It also gave an MIC (S.faecalis; strain PAGE) of 128 µg/mL, an MIC (Haemophilus influenzae; Haemophilus influenzae, strain Q1, read-out: MIC) of 0.13 µg/mL and an MIC (Haemophilus influenzae; strain Wy21) of 0.13 µg/mL. The MIC (Neisseria catarrhalis) was 0.13 µg/mL, the MIC (Corynebacterium xerosis) was over 128 µg/mL and the “Percentage Initial Potency after Storage” value ([1]; 192 h) was 97%. The “Percentage Initial Potency after Storage” value ([1]; 240 h) was 98.9%, the MIC (B.subtilis) was 0.07 µg/mL and the MIC (Corynebacterium pyogenes) was over 80 µg/mL. For the same molecule, the MIC (Moraxella Bovis) was 0.31 µg/mL, the MIC (Past.multocida) was 0.07 µg/mL and the MIC (E.coli [3]; NCTC10418, strain NCTC 10418) was 80 µg/mL. It also gave an MIC (E.coli [3]; strain E1) of 80 µg/mL, an MIC (Strep.suis (group D)) of 0.63 µg/mL and an MIC (Staph.aureus; strain 152 (pen.sens.)) of 0.16 µg/mL. It also gave an MIC (Staph.aureus; strain (Mexi)) of 0.16 µg/mL, an MIC (Staph.aureus; strain B4 (pen.resistant)) of 0.16 µg/mL and an MIC (Staph.aureus; strain M60) of 0.16 µg/mL. For the same molecule, the MIC (Staph.aureus; strain Oxford) was under 0.1 µg/mL, the MIC (Bord.bronchiseptica; strain B08) was 5 µg/mL and the MIC (Bord.bronchiseptica; strain B09) was 1.3 µg/mL. It also gave an MIC (Past.haemolytica) of 2.5 µg/mL, an MIC [4] of 20 µg/mL and an MIC (Strep.dysgalaciae) of 0.16 µg/mL. The MIC (Strep.uberis) was 0.07 µg/mL, the MIC (S.typhimurium) was 80 µg/mL and the MIC (Strep.agalactiae) was 0.16 µg/mL. For the same molecule, the MIC (S.dublin) was 80 µg/mL.

For C/C(=C\C(=O)OCCCCCCCCC(=O)O)C[C@@H]1OC[C@H](C[C@@H]2O[C@H]2[C@@H](C)[C@H](C)O)[C@@H](O)[C@H]1O [Pseudomonic Acid, Pseudomonic acid], the “Percentage Initial Potency after Storage” value ([1]; 192 h) was 0% and the “Percentage Initial Potency after Storage” value ([1]; 240 h) was 77.9%.

With CC(=CC(=O)OCCCCCCCCC(=O)O)CC1OCC(CC2OC2C(C)C(C)O)C(O)C1O (centres unmarked) [crystalline calcium pseudomonate, calcium pseudomonate] the “thermal stability (in words)” value [1] was “outstandingly good thermal stability”.
